This note sets out measurements from patent US20170107462A1, “ARRAY OF FABRIC TREATMENT PRODUCTS” (The Procter & Gamble Company, priority 2015, published 2017).

This experiment is described as follows: Blocker Index (BI), expert graders on malodorous fabric swatches. More on the design: key: 0-3 malodor scale; 0 = clean untreated swatch. From the text:
Blocker materials suitable for use in consumer products of the present invention are chosen for their ability to decrease malodor, while not interfering with perception of a fragrance. Material selection is done by assigning two indices to a test sample material from two reference scales in order to rank odor strengths. The two reference scales are the Fragrance Fidelity Index (FFI) scale and the Blocker Index (BI) scale. The FFI ranks the ability of the test sample material to impart a perceivable odor which could cause interference when combined with another fragrance and the BI ranks the ability of the test sample material to reduce malodor perception. The two methods for assigning the indices to a test sample on the FFI and the BI reference scales are given below.
The first step in the method for assigning a BI to a test sample material on the BI reference scale is to create the BI reference swatches. […] Fabric swatches for this test are white knit polycotton (4 inch×4 inch) swatches from EMC ordered as PC 50/50. The supplier is instructed to strip the swatches first, stripping involves washing twice with a fragrance-free detergent and rinsing three times.
The BI scale contains one clean swatch with no malodor applied. […] These solutions are pipetted to the middle of the swatches. […] After drying for 30 minutes in a vented hood, the swatches are wrapped in aluminum foil to prevent odor contamination to the treated swatch. A clean untreated swatch is also included as the lowest anchor point of reference for malodor strength on the BI scale. The BI reference scale swatches should be used within 0.5 to 12 hours and discarded after 12 hours. The swatches are used as scale anchor points when graders evaluate a test sample(s) and are assigned a Blocker Index (BI) as show in Table 12.
The perfumer/expert grader is asked to rank order swatches according to a scale between 0 and 3.
The reference swatches represent the 0, 1, 2, and 3 BIs on the BI reference scale, Table 12. […]

For `CC(C)CC(=O)O` [isovaleric acid], the “BI grade of reference swatch, individual Expert Grader” value is, setting by setting: (stripped swatch with 2 μL 0.08% isovaleric acid) 2.0; (stripped swatch with 5 μL 0.08% isovaleric acid) 2.0; (stripped swatch with 20 μL 0.08% isovaleric acid) 3.0.
